# Data taken from patent publication US9457056B2, “Peptides comprising alternating hydrophobic and anionic amino acids for treatment of osteoporosis” (Ben-Gurion University of the Negev Research and Development …, priority 2007, dated 2016).
# Entries after “also recorded” stand apart in the source; their conditions may differ. Ends that are not written are not given here.
# Legend:
# human stomach = conditions: healthy volunteers, doses prescribed for osteoporosis and Pagets disease of bone; cited from earlier work
# [1] = Formation of hydrogels by additional peptides; type: physicochemical; conditions: 4% weight in 100 μl NaOH solution
# Description: Additional peptides were studies in order to elucidate the role of termini Proline residue in hydrogel formation, to test the effect of peptide length and peptide termini protecting groups.
# Sprague-Dawley rats [2] = experiment: Antigenicity (immunity) test, single intramuscular administration of hydrogel; type: in vivo, rat; conditions: single i.m. hydrogel, 7.5 times maximum estimated human dose, 14 days
# Procedure: Immunity tests were performed to determine the safety of the compositions of the present invention. […] The control group was injected with saline. Rats were scarified after 14 days, blood was withdrawn for future hematology and biochemistry tests.
# Sprague-Dawley rats [3] = experiment: In vivo toxicity, single subcutaneous administration of hydrogel
# Procedure: A control group was injected with saline. Rats were sacrificed after 14 days. Hematology and biochemistry blood tests were performed, the injected area was excised and examined as well as other internal organs.
# SaOS2 cells = experiment: Quantitative evaluation of SaOS2 growth on 2D hydrogels (LIVE/DEAD Viability/Cytotoxicity Kit); type: cell-based; conditions: 3% w/v hydrogel, vs uncoated wells
# Procedure: On 2D hydrogels: Quantitative studies of cell proliferation were performed in 2D systems of PFD-13 (3% w/v) hydrogels that were formed with DMEM+bicarbonate at pH ˜7.0 in 96-wells plates.
# The plates were sterilized by gamma irradiation (5000 rad). 50 μl of culture media were pipette on top of each hydrogel for conditioning. After 1 h at room temp, SaOS2 cells were seeded on top of the hydrogels. Single cell suspensions obtained after trypsinization which diluted to concentration of 1×10^5 cells/1 ml. 50 μl of this cell suspension was seeded on top of each hydrogel. Triplicates of none coated wells were seeded and served as control. After 1 h of incubation, medium was added to complete the volume to 200 μl in each well ([…] and 150 μl in the uncoated wells). Culture medium was exchanged twice a week. Viability of the cells was evaluated every week, over a month, using the LIVE/DEAD Viability/Cytotoxicity Kit (Molecular Probes, Invitrogen, France) following the manufacturer's instructions. […] Ethidium-III enters dead cells with damaged membranes and undergoes a 40-fold enhancement of fluorescence upon binding to their DNA, leading to a red fluorescent signal. The plates were measured in a plate reader (calcein: Ex=495 nm, Em=515 nm. ethidium: Ex=530 nm, Em=635 nm). After measuring the medium fluorescence, the gain was set constant for each probe. […]
# [4] = Effect of Ca+2 ions on hydrogel formation; type: physicochemical; parameters: key: Hydrogel formation (✓); * partial formation of hydrogel over hours; conditions: peptide final concentration 1.34% weight
# Procedure: With the addition of Ca^+2 ions to the solution of the peptide the system may form a hydrogel. These hydrogels are obtained at peptide concentrations smaller and at pH values higher than those without the ions. […] It is possible that the Ca^+2 may also induce cross linking between strands in a mechanism similar to that of alginate hydrogel formation. The concentration of Ca^+2 ions in the hydrogel are a few times larger than in the body serum (2.5 mM). This is envisaged to yield a better environment for the bone forming osteoblast cells. In any event, the Ca^+2 provides an additional parameter to control the hydrogel rheological and stability properties.
# Peptides, 2% (w/v) in the liquid state were dissolved in 0.05 M NaOH to yield 7.0<pH<7.5 solution.
# [5] = single s.c. hydrogel, about 10 times clinically relevant amount
Compound,Resultant pH ([1]; NaOH conc. 0.03),Resultant pH ([1]; NaOH conc. 0.05),Self supporting gel formation assigned + ([1]; NaOH conc. 0.05),Hydrogel formation upon the addition of CaCl2 sol. ([4]; Ca+2 final concentration 27 mM),Hydrogel formation upon the addition of CaCl2 sol. ([4]; Ca+2 final concentration 33 mM),Hydrogel formation upon the addition of CaCl2 sol. ([4]; Ca+2 final concentration 20 mM),further results
"NCCCC(O)(P(=O)(O)O)P(=O)(O)O [Alendronate, alendronate]",–,–,–,–,–,–,Gastric injury (human stomach): cause erosions and ulcers in the human stomach
(Phe-Asp)6 (chain 1 FDFDFDFDFDFD; chain 2 FDFDFDFDFDFD),~6,~7,–,–,–,–,–
Ac-PDFDFDFDFDFDP-NH2 [Ac-Pro-Asp-(Phe-Asp)5-Pro-NH2],~6,>7.5,Viscous liquid,–,–,–,Appearance during the experiment (Sprague-Dawley rats [2]): appeared normal; Survival (Sprague-Dawley rats [2]): All rats survived; Levels of LDH (Sprague-Dawley rats [3]; rats sacrificed after 7 days): slightly high levels; Levels of LDH (Sprague-Dawley rats [3]; rats sacrificed after 14 days): normal; Behavior (Sprague-Dawley rats [3]; [5]): no signs of abnormal behavior; Body weight compared to control group (Sprague-Dawley rats [3]; [5]): did not lose weight; Internal organs (Sprague-Dawley rats [3]; [5]): appeared normal; Survival (Sprague-Dawley rats [3]; [5]): All rats survived
"PDFDFDFDFDFDP [PFD-13, PD(FD)5P]",–,–,–,✓,✓,–,Cytotoxicity (EthD-III staining) (SaOS2 cells): not significant; also recorded: non toxic to the cells
"PDLDLDLDLDLDP [PLD-13, PD(LD)5P]",–,–,–,*,*,*,–
"PEFEFEFEFEFEP [PFE-13, PE(FE)5P]",–,–,–,✓,✓,✓,–
"PELELELELELEP [PLE-13, PE(LE)5P]",–,–,–,✓,✓,✓,–
Pro-Asp-(Phe-Asp)6 (chain 1 PDFDFDFDFDFDFD; chain 2 PDFDFDFDFDFDFD),~6,~7,after several hrs.,–,–,–,–
Pro-Asp-Phe-Asp (PDFD; printed: Pro-Asp-Phe-Asp),~3,~4,liquid,–,–,–,Self supporting gel formation assigned + ([1]; NaOH conc. 0.03): liquid
